# Measurements from patent US7375215B2, “Compounds for PDT” (Bioscience Technology Investment Holdings Limited, priority 2000, dated 2008).
# How the values were obtained:
# [1] = Spectroscopic properties (absorbance, fluorescence); format: physicochemical; conditions: for Fluorescence in aqueous solution relative to ethanol: excited at 405 nm, indicates aggregation in water; for Molar extinction coefficient at the red peak: red absorption peak
# [2] = usual clinical dose of 0.15 mg kg^−1; cited from earlier work
# [3] = Solubility in water; format: physicochemical
# [4] = tested on: Balb/c mice; assay: Cutaneous photosensitivity (ear thickness after xenon light irradiation); format: in vivo; conditions: 0.88 μmol kg^−1, 40 Joules per cm^2 xenon light
# Protocol: Cutaneous photosensitivity was determined in adult female Balb/c mice, held under standard conditions and allowed access to food and water ad libitum. […] Each mouse was weighed immediately before injection and the injected volume adjusted to give the correct dose.
# At 24 or 72 hours after photosensitiser injection one ear of each mouse was irradiated with full-spectrum xenon light from a 1 KW clinical photo-irradiator (Model UV-90, Applied Photophysics, London). The light was delivered to the ear using a 7 mm diameter light guide (Serial SU3) placed lightly against the ear. The light dose given was 40 Joules per cm^2, which was achieved by exposing the ear for 63 seconds to 245 mW of light from the light guide having a contact area of 0.384 cm^2. The light guide filtered infra-red and ultra-violet light, so as to minimise heating of the ear and damage resulting from ultra-violet light irradiation.
# Animals treated with light at the 24 or 72 hour drug-light intervals were killed at 48 or 24 hours respectively after irradiation of the ears. The oedema of the irradiated and control ears was assessed by measuring ear thickness. The thickness of the ear was measured at three sites on the upper third of the ear using a fixed-force micrometer with a vernier-interpolated resolution of 2 μm and an accuracy of 10 μm (Neill instruments).
# [5] = tested on: Colo26 mouse colorectal tumour cells; assay: Uptake by Colo26 tumour cells in culture; format: cell-based; conditions: 1.5 μM; for 6 hour uptake (millions of molecules per cell) / 24 hour uptake (millions of molecules per cell) / Rate of uptake 6-24 h (thousands of molecules per cell per hour): Colo26 cells
# Protocol: Colo26 mouse colorectal tumour cells were grown in culture using standard methods. […] At the end of the set time period, the culture medium containing the added photosensitiser was removed and the cells washed with cold phosphate buffered saline. The cells were freed from the culture flask by treatment with trypsin solution. The viable cell count was determined using a standard haemocytometer and the photosensitiser extracted from the cells by treatment with methanol:DMSO (4:1, v:v). Cell extracts were frozen in liquid nitrogen and stored at −70° C. for later analysis. The photosensitiser content of the cell extract was determined by direct fluorescence using standard curves of photosensitiser and correcting for extraction efficiency from the cell suspension. […] (millions of molecules per cell, m against time t (hours)). […] The uptake of m-THPC is rapid, reaching a peak around 24 hours after which the photosensitiser content of the cells declines. […] However, the amount of photosensitiser taken up is greater. […] The mechanism of photosensitiser uptake by cells remains a subject of study. In the case of small hydrophobic sensitisers such as m-THPC, which are generally presented to cells bound to protein or lipoprotein in biological systems, a role for specific lipoprotein receptors has been implicated. […] One way in which uptake mechanisms may be studied is by determining the influence of temperature. In general, active (energy-dependent) uptake processes are inhibited in cells maintained at 4° C. compared to those at 37° C. Passive (energy-independent) uptake processes are much less temperature-dependent.
# [6] = Plasma and tissue photosensitiser concentrations in tumour-bearing mice
# Protocol: Adult female Balb/c mice bearing the syngeneic colo26 tumour implanted subcutaneously were produced using methods previously described (Ansell et al. Lasers in Medical Science 1997, 12, 336-41). Groups of mice of weight 19-22 g were given the photosensitisers at a dose of 0.88 μmol kg^−1 (equivalent to 0.6 mg kg^−1 in the case of m-THPC) by injection into the tail vein. The solutions for injection of each compound were prepared at a concentration of 0.352 μmol ml^−1 so that a typical 20 g mouse would be injected with a volume of 50 μl.
# Animals were sacrificed at 6, 24, 72 and 192 hours after injection of each photosensitiser. Immediately after sacrifice, blood was obtained by cardiac puncture, and centrifuged at 13,000×g for three minutes. The resulting supernatant (blood plasma) was aspirated and stored at −70° C. for subsequent analysis. The photosensitiser content of each sample was measured from the fluorescence of an extract obtained using methanol:DMSO (3:5, v:v). A 50 μl portion of each extract was transferred to a disposable fluorescence cuvette and the fluorescence determined using an excitation wavelength of 418 nm and emission wavelength of 650 nm with an eight second response setting. The assay was calibrated using stock solutions of each compound in methanol, further diluted in methanol:water (1:1, v/v) and extracted with methanol:DMSO as described above. […] The measurement protocol was designed to dilute each sample to a sufficient extent to avoid interference by endogenous chromophores (absorbance of samples <<0.1 at the excitation wavelength).
# The selectivity for tumour specific tissue distribution was also evaluated in this work. Tissue selectivity was evaluated as the tumour:muscle concentration ratio over the duration of the observation period (4-192 hours post-administration). This ratio provided a direct measure of the normal tissue to tumour tissue differential in concentrations and allows selection of an optimal treatment time for PDT that minimises the potential to cause collateral damage of normal tissues.
# [7] = tested on: syngeneic colo26 tumour implanted subcutaneously; assay: Tumour PDT activity (tumour necrosis) in mouse implanted colorectal tumour model
# From the text: Information on the tumour PDT activity have been obtained in the aforementioned mouse model bearing the syngeneic colo26 tumour implanted subcutaneously at the top of the left hind leg (approximately 1 cm lateral to the spine). The tumours were used after 12 to 16 days when they had reached an average diameter of 8 to 10 mm. For drug injection and irradiation animals were sedated with Hypnorm diluted in water (1:3).
# [8] = tested on: tumour and muscle; conditions: cited from earlier work
# [9] = tested on: syngeneic colo26 tumour implanted subcutaneously; conditions: 4.4 μmol kg^−1; drug-light interval 72 hours; light 652 nm; cited from earlier work
# [10] = 0.88 μmol kg^−1 i.v., 6-192 hours
Molecule,Fluorescence in aqueous solution relative to ethanol [1],Molar extinction coefficient at the red peak [1],"Differences in ear thickness (irradiated-control), Mean ([4]; 24 h drug-light interval) [μm]","Differences in ear thickness (irradiated-control), Mean ([4]; 72 h drug-light interval) [μm]",6 hour uptake (millions of molecules per cell) ([5]; 4° C.),24 hour uptake (millions of molecules per cell) ([5]; 4° C.),Rate of uptake 6-24 h (thousands of molecules per cell per hour) ([5]; 4° C.),6 hour uptake (millions of molecules per cell) ([5]; 37° C.),24 hour uptake (millions of molecules per cell) ([5]; 37° C.),Rate of uptake 6-24 h (thousands of molecules per cell per hour) ([5]; 37° C.),further results
"Oc1cccc(-c2c3nc(c(-c4cccc(O)c4)c4ccc([nH]4)c(-c4cccc(O)c4)c4nc(c(-c5cccc(O)c5)c5ccc2[nH]5)CC4)C=C3)c1 [m-THPC, 7,8-dihydro-5,10,15,20-tetrakis(3-hydroxyphenyl)porphyrin]",severely quenched,"~30,000 L mol^−1 cm^−1",41,2,0.82 millions of molecules per cell,1.33 millions of molecules per cell,28 thousands of molecules per cel,79.2 millions of molecules per cell,208 millions of molecules per cell,7184 thousands of molecules per cel,"Duration of skin sensitivity [2]: 2-3 weeks; Solubility in water ([3]; water): insoluble; Solubility in water ([3]; water / aqueous solvents): insoluble in aqueous solvents; Inhibition of uptake at 4° C., factor ([5]; 4° C. versus 37° C.): over 250; Time of peak uptake by tumour cells ([5]; 37° C.): around 24 hours"
"tetrakis (6′-(methoxy PEG 2000 carbamate)1′-isocyanate hexamethylene) derivative of 7,8dihydro-5,10,15,20-tetrakis(3-hydroxyphenyl)porphyrin [SPC 0172]",36%,"~22,000 L mol^−1 cm^−1",2,0,1.08 millions of molecules per cell,1.78 millions of molecules per cell,39 thousands of molecules per cel,1.12 millions of molecules per cell,2.08 millions of molecules per cell,53 thousands of molecules per cel,"Liver photosensitiser levels [6, 10]: lower and eliminated more quickly; Plasma concentration-time profile [6, 10]: lower absolute levels and more rapid elimination; Skin photosensitiser concentrations [6, 10]: low throughout the 6-192 hour measurement period; Tumour:muscle concentration ratio ([6]; 72 hours post-administration, 0.88 μmol kg^−1 i.v.): about 7.5; Time of optimal tumour:muscle concentration ratio ([6]; post-administration, 0.88 μmol kg^−1 i.v.): 72 h; PDT activity compared with m-THPC ([7]; Balb/c mice bearing colo26): same PDT activity as m-THPC; Time of maximum photodynamic effect in tumour ([7]; Balb/c mice bearing colo26): 2 days; Damage of surrounding skin and underlying muscle at treated sites ([7]; particularly at the two day drug-light interval): only limited damage of the surrounding skin and underlying muscle; Tumour damage at a range of drug-light intervals ([7]; same dose (1.76 μmol kg^−1), light dose 20 J cm^−2, all drug-light intervals up to 72 hours): Full thickness tumour damage; Uptake on cooling as share of that at 37° C. ([5]; 4° C. versus 37° C.): about 75%; Cell photosensitiser content, times as much as SPC 0038B ([5]; after 72 hours of incubation, 37° C.): about 5"
"tetrakis (ω-methoxypolyethylene glycol [MW=2000] triazine of 7,8-dihydro-5,10,15,20-tetrakis(3-hydroxyphenyl)porphyrin [SPC 0038B]",47%,–,25,4,0.56 millions of molecules per cell,0.64 millions of molecules per cell,4 thousands of molecules per cel,0.82 millions of molecules per cell,0.86 millions of molecules per cell,2 thousands of molecules per cel,"Excretion from the liver ([6]; mouse, in vivo): more slowly than m-THPC; Fold less potency in comparison to SPC 0172 and m-THPC ([7]; optimal drug-light interval of 72 hours, dose level and degree of tumour necrosis basis): 10-20 fold; Time for which tumour retained maximum sensitivity to light ([8]; after drug administration, mouse model): at least 15 days; Time of peak concentration in muscle ([8]; after injection): ≤ 72 h; Muscle photosensitivity ([8]; three days after administration, mouse model): no longer photosensitive; PDT treatment times with sustained PDT tumour necrosis ([8]; tumour bioactivity): 4 to 15 days; Uptake in the cold compared with 37° C. ([5]; 4° C. versus 37° C.): twice as great in the cold than at 37 °C; Cell photosensitiser content, factor less than that of m-THPC ([5]; after 72 hours incubation, 37° C.): ~100; Biological effect (mm of tumour necrosis) [9]: 3.3 ± 0.7 ^1 mm"
